According to paper PMC8041284, “Tunable Methacrylamides for Covalent Ligand Directed Release Chemistry” (Journal of the American Chemical Society, 2021):
Where a SMILES comes first, the peptide text is derived from it. [ ]: non-standard residue; d: D form. The star is where a group is joined. Benzoyl(4-tBu) = CC(C)(C)c1ccc(C(=O)*)cc1; Lys(Et2) = CCN(CC)CCCC[C@H](N)C(=O)O

Target: BTK (Homo sapiens, UniProt Q06187)
Test: biochemical
Details: read-out: BTK inhibition (%), 0.75 uM BTK, […] probe 3l, 15 min preincubation

BTK, sequence (Q06187 402-655 limits assumed): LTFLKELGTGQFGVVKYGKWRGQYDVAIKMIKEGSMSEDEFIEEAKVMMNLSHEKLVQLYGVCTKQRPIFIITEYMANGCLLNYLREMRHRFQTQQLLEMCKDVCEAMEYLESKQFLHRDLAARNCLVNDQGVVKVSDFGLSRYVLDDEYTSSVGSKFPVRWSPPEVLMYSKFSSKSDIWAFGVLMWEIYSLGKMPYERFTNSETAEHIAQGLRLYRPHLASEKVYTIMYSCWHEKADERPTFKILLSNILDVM

Compound	inhibition at 10 µM
Nc1nc(N)c2nc(-c3ccccc3)c(N)nc2n1 [PCM-0065015]	-4.7%
C[C@H]1Oc2cc(cnc2N)-c2c(nn(C)c2C#N)CN(C)C(=O)c2ccc(F)cc21 [PCM-0215394]	17.9%
Cc1cc(Nc2ncc(Cl)c(Nc3ccccc3S(=O)(=O)C(C)C)n2)c(OC(C)C)cc1C1CCNCC1 [PCM-0095745]	69.7%
COc1ccc(N2C(=O)/C(=C\c3ccc([N+](=O)[O-])s3)SC2=S)cc1 [PCM-0215671]	22.4%
CC(C)=CCC[C@](C)(O[C@@H]1O[C@H](CO)[C@@H](O)[C@H](O)[C@H]1O)[C@H]1CC[C@]2(C)[C@@H]1[C@H](O)C[C@@H]1[C@@]3(C)CC[C@H](O)C(C)(C)[C@@H]3[C@@H](O)C[C@]12C [PCM-0216532]	-11.6%
Cc1nc(Nc2n[nH]c3c2CN(C(=O)N[C@H](CN(C)C)c2ccccc2)C3(C)C)c2sccc2n1 [PCM-0095819]	72.4%
N[C@@]1(C(=O)O)CS(=O)(=O)[C@H]2[C@H](C(=O)O)[C@H]21 [PCM-0215191]	9.4%
C[n+]1cc2c3c(ccc2c2ccc4cc5c(cc4c21)OCO5)OCO3 [PCM-0065605]	75.7%
CCCCc1oc2ccc(NS(C)(=O)=O)cc2c1C(=O)c1ccc(OCCCN(CCCC)CCCC)cc1 [PCM-0095292]	62.3%
O=c1cc(-c2ccc(O[C@@H]3O[C@H](CO)[C@@H](O)[C@H](O)[C@H]3O)cc2)oc2cc(O)c([C@@H]3O[C@H](CO)[C@@H](O)[C@H](O)[C@H]3O[C@@H]3OC[C@H](O)[C@H](O)[C@H]3O)c(O)c12 [PCM-0216482]	-22.4%
CC[C@H](C)n1cc(C)c2c(C(=O)NCc3c(C)cc(C)[nH]c3=O)cc(-c3ccc(N4CCNCC4)nc3)cc21 [PCM-0215444]	-2.6%
C[S+]([O-])c1ccc(-c2nc(-c3ccc(F)cc3)c(-c3ccncc3)[nH]2)cc1 (stereo not shown) [PCM-0095024]	18.6%
CCOC(=O)C1=C(N)Oc2ccc(Br)cc2C1C(C#N)C(=O)OCC (stereo not shown) [PCM-0214778]	15.6%
CCN(CC)CCCC[C@H](NC(=O)[C@H](CC(C)C)NC(=O)[C@H](C)NC(=O)[C@H](Cc1ccccc1)NC(=O)c1ccc(C(C)(C)C)cc1)C(=O)N[C@@H](CO)C(=O)OC [PCM-0215741] ({Benzoyl(4-tBu)}-FAL[Lys(Et2)]S-OMe)	-16.2%
CC(C)c1c(C(=O)Nc2ccccc2)c(-c2ccccc2)c(-c2ccc(F)cc2)n1CC[C@@H](O)C[C@@H](O)CC(=O)O [PCM-0064680]	10.1%
NC(=O)c1ccc[n+]([O-])c1 [PCM-0215057]	5.4%
Cc1[nH]c(=O)c(C#N)cc1-c1ccncc1 [PCM-0065386]	-9.3%
OCC1(O)COc2cc(O)ccc2-c2cc(O)c(O)cc2C1 (stereo not shown) [PCM-0216494]	39.4%
CC(O)(CS(=O)(=O)c1ccc(F)cc1)C(=O)Nc1ccc(C#N)c(C(F)(F)F)c1 (stereo not shown) [PCM-0065600]	11.7%
COC(=O)C1=C(C)NC(C)=C(C(=O)OCCN(C)Cc2ccccc2)C1c1cccc([N+](=O)[O-])c1 (stereo not shown) [PCM-0064729]	47.5%
C[C@H]1[C@H](C)CC[C@]2(C(=O)O[C@@H]3O[C@H](CO[C@@H]4O[C@H](CO)[C@@H](O[C@@H]5O[C@@H](C)[C@H](O)[C@@H](O)[C@H]5O)[C@H](O)[C@H]4O)[C@@H](O)[C@H](O)[C@H]3O)CC[C@]3(C)C(=CC[C@@H]4[C@@]5(C)C[C@@H](O)[C@H](O)[C@@](C)(CO)[C@@H]5CC[C@]43C)[C@H]12 [PCM-0214874]	-15.9%
CC(=O)OCC1=C(C(=O)O)N2C(=O)[C@@H](NC(=O)CSC(=NC(C)C)NC(C)C)[C@H]2SC1 [PCM-0216063]	4.7%
O=C1NC(=NCc2cccs2)S/C1=C\c1ccc2ncccc2c1 [PCM-0215455]	-9%

Compound	inhibition at 10 µM
C[C@@H]1O[C@@H](O[C@H]2[C@H](O)[C@@H](O)[C@H](OC[C@H]3O[C@@H](OC(=O)[C@]45CCC(C)(C)C[C@H]4C4=CC[C@@H]6[C@@]7(C)CC[C@H](O[C@@H]8OC[C@H](O)[C@H](O)[C@H]8O)[C@@](C)(CO)[C@@H]7CC[C@@]6(C)[C@]4(C)CC5)[C@H](O)[C@@H](O)[C@@H]3O)O[C@@H]2CO)[C@H](O)[C@H](O)[C@H]1O [PCM-0216340]	-10.2%
COc1cccc2c1C(=O)c1c(O)c3c(c(O)c1C2=O)C[C@@](O)(C(=O)CO)C[C@@H]3O[C@H]1C[C@H](N)[C@H](O[C@@H]2CCCCO2)[C@H](C)O1 [PCM-0214749]	53.7%
CCn1nc(C2CCN(C(=O)CCO)CC2)nc1-c1cnc(N)c(-c2nnc(C(C)(C)C)o2)n1 [PCM-0215697]	9.7%
C=C[C@@H]1C[C@]1(NC(=O)[C@@H]1C[C@@H](Oc2ncc(OC)c3ccc(Cl)cc23)CN1C(=O)[C@@H](NC(=O)OC(C)(C)C)C(C)(C)C)C(=O)NS(=O)(=O)C1CC1 [PCM-0215095]	-4.7%
O=C(Nc1cccc(C2=NCCN2)c1)Nc1cccc(C2=NCCN2)c1 [PCM-0216019]	-17%
CC(C)(C)NS(=O)(=O)c1cncc(-c2cc(F)c3nc(N)nn3c2)c1 [PCM-0215240]	-4.8%
Cc1ccc(C(C)C)cc2c(C)ccc1-2 [PCM-0215089]	10.1%
COc1ccc(-c2ccc3c(N4CCOC[C@@H]4C)nc(N4CCOC[C@@H]4C)nc3n2)cc1CO [PCM-0095110]	-8.3%
CNc1nc(Nc2cn(C(C)(C)C#N)nc2C)ncc1C(F)(F)F [PCM-0095754]	7.6%
NC1(Cc2ccc(Cl)cc2)CCN(c2ncnc3[nH]ccc23)CC1 [PCM-0095516]	13.8%
COc1cc(/C=C/C(=O)CC(=O)/C=C/c2ccc(O)cc2)ccc1O [PCM-0216521]	110%
C[C@]12C[C@@H](O)[C@@H]3C[C@@]1(O[C@@H]1O[C@H](CO)[C@@H](O)[C@H](O)[C@H]1O)[C@]3(COC(=O)c1ccccc1)C(=O)O2 [PCM-0216349]	-12.4%
O=C(Oc1cc(S(=O)(=O)c2ccccc2)ccc1[N+](=O)[O-])c1ccc(Cl)cc1 [PCM-0004196]	-3.1%
CC(=O)c1cc2c(o1)C(=O)c1ccccc1C2=O [PCM-0215544]	-0.8%
Cc1cc(O)c(C(=O)CCC(C)C)c(=O)o1 [PCM-0216387]	5.4%
CCC(=O)O[C@]1(C(=O)CCl)[C@@H](C)C[C@H]2[C@@H]3CCC4=CC(=O)C=C[C@]4(C)[C@@]3(F)[C@@H](O)C[C@@]21C [PCM-0086533]	3.4%
NS(=O)(=O)c1ccc(NC(=O)Nc2ccc(F)cc2)cc1 [PCM-0095531]	-15.6%
CSCC1CN(/N=C/c2ccc([N+](=O)[O-])o2)C(=O)O1 (stereo not shown) [PCM-0216228]	20.7%
COc1cc2c(NC3CCN(C(C)C)CC3)nc(C3CCCCC3)nc2cc1OCCCN1CCCC1 [PCM-0215758]	-10.8%
CC1=C(C(=O)OCCN(Cc2ccccc2)c2ccccc2)C(c2cccc([N+](=O)[O-])c2)C(P2(=O)OCC(C)(C)CO2)=C(C)N1 (stereo not shown) [PCM-0215151]	7.8%
Cc1c(Nc2ncccc2C(=O)O)cccc1C(F)(F)F [PCM-0086423]	-9%
Oc1ccc2c(c1)OC[C@@H]1c3cc4c(cc3O[C@H]21)OCO4 [PCM-0216297]	-20.1%
COc1cc([C@@H]2c3cc4c(cc3[C@@H](O[C@@H]3O[C@@H]5CO[C@@H](c6cccs6)O[C@H]5[C@H](O)[C@H]3O)[C@H]3COC(=O)[C@H]23)OCO4)cc(OC)c1O [PCM-0095114]	24.1%
